Experimental data published in patent US8450067B2, “Method for obtaining anti-idiotype antibodies” (Omrix Biopharmaceuticals Inc., priority 2002, dated 2013).

Tests used:
BALB/c neonatal mice = BALB/c neonatal mice immunized later with pCDR1 or the pathogenic auto-Ab; cited from earlier work
[1] = tested on: immunoglobulin elution peak from a peptide column bound with peptide 707; experiment: ELISA of peptide column eluate with biotinylated peptides (707 column); assay type: binding, human; details: FIG. 4; biotinylated peptide 1 μg/ml
Protocol: (§1) To measure the binding efficacy of peptide column eluates (706 and 707) the following ELISA was performed:
(§2) Microtiter plates (Costar, USA) were coated overnight at 2-8° C. with 10 μg/ml NeutrAvidin (Pierce, USA) suspended in 0.1M, pH 8.8, of carbonate-bicarbonate buffer (Sigma USA). The coating solution was removed, washed three times with washing buffer (1×PBS) and 200 μl of blocking solution (freshly prepared 1% I Block, Tropix, USA) per well was added and incubated for 1 hour at 37° C. Coated and blocked plates can be stored at −20° C. for a month before use.
(§3) Tested samples diluted in the blocking solution were mixed in a separate tube with 1 μg/ml (final concentration) of the appropriate biotinylated peptide and the mixture was incubated for 1 hour at 37° C. 100 μl from each reaction tube was then transferred to the blocked microtiter plate and incubated at 37° C. for ½ hour. A 100 μl of 1:5000 Alkaline Phosphatase conjugate goat anti human IgG (Heavy and light chain from Jackson, USA) diluted in the blocking buffer was applied into the microtiter well and incubated for 1 hour. […] The measurement was done photometrically at 405 nm.

mice = details: cited from earlier work
[2] = tested on: immunoglobulin eluted from a peptide column bearing the peptide 706; experiment: ELISA of peptide column eluate with biotinylated peptides (706 column); assay type: binding, human; details: FIG. 3; biotinylated peptide 1 μg/ml
Protocol: as §1, §2, §3

[3] = tested on: anti-dsDNA antibody-positive SLE sera; details: sera which cross react with ssDNA; cited from earlier work

Sequence	auto-Ab production (BALB/c neonatal mice)	binding of 707 column eluate to biotinylated peptide [1]	effect on disease in experimental SLE mice (mice; experimental SLE mice)	induction of SLE-like disease in mice (mice; responder mice (BALB/c, SJL))	binding of 706 column eluate to biotinylated peptide [2]	share of anti-dsDNA antibody-positive SLE sera that recognize the peptide [3] [%]
TGYYMQWVKQSPEKSLEWIG [Pep 706]	prevent auto-Ab production	reacted	ameliorate the disease	induced a mild SLE-like disease	reacted specifically in a linear fashion	–
RLTSSLRYNP [synthetic peptide mimotope of dsDNA (Sun et al. 2001)]	–	–	–	–	–	88
